In ChEMBL document CHEMBL1139986, “Synthesis and biodistribution of 8-iodo-11-(4-methylpiperazino)-5H-dibenzo[b,e][1,4]-diazepine: Iozapine” (Bioorg Med Chem Lett, 2007):

Assays:
[1] = test system: Spleen; assay: Biodistribution in BALB/c mouse spleen at 7 to 8 KBq, iv after 15 mins; type: ADME, organism-based; details: in vivo, 0.25 h
[2] = test system: Blood; assay: Biodistribution in BALB/c mouse blood at 7 to 8 KBq, iv after 5 mins; type: ADME, organism-based; details: in vivo
[3] = test system: Hippocampus; assay: Biodistribution in BALB/c mouse hippocampus at 7 to 8 KBq, iv after 15 mins; type: ADME, organism-based; details: in vivo, 0.25 h
[4] = test system: Cortex; assay: Biodistribution in BALB/c mouse cortex at 7 to 8 KBq, iv after 60 mins; type: ADME, organism-based; details: in vivo, 1 h
[5] = test system: Lung; assay: Biodistribution in BALB/c mouse lung at 7 to 8 KBq, iv after 60 mins; type: ADME, organism-based; details: in vivo, 1 h
[6] = test system: Blood; assay: Biodistribution in BALB/c mouse blood at 7 to 8 KBq, iv after 120 mins; type: ADME, organism-based; details: in vivo, 2 h
[7] = test system: Brain; assay: Biodistribution in BALB/c mouse brain at 7 to 8 KBq, iv after 15 mins; type: ADME, organism-based; details: in vivo, 0.25 h
[8] = test system: Thalamus; assay: Biodistribution in BALB/c mouse thalamus at 7 to 8 KBq, iv after 120 mins; type: ADME, organism-based; details: in vivo, 2 h
[9] = test system: Brain; assay: Biodistribution in BALB/c mouse brain at 7 to 8 KBq, iv after 60 mins; type: ADME, organism-based; details: in vivo, 1 h
[10] = test system: Stomach; assay: Biodistribution in BALB/c mouse stomach at 7 to 8 KBq, iv after 120 mins; type: ADME, organism-based; details: in vivo, 2 h
[11] = test system: Mus musculus; assay: Biodistribution in BALB/c mouse upper body at 7 to 8 KBq, iv after 5 mins; type: ADME, organism-based; details: in vivo
[12] = test system: Medulla; assay: Biodistribution in BALB/c mouse medulla at 7 to 8 KBq, iv after 15 mins; type: ADME, organism-based, Medulla of organ; details: in vivo, 0.25 h
[13] = test system: Medulla; assay: Biodistribution in BALB/c mouse medulla at 7 to 8 KBq, iv after 60 mins; type: ADME, organism-based, Medulla of organ; details: in vivo, 1 h
[14] = test system: Cortex; assay: Biodistribution in BALB/c mouse cortex at 7 to 8 KBq, iv after 120 mins; type: ADME, organism-based; details: in vivo, 2 h
[15] = test system: Thyroid gland; assay: Biodistribution in BALB/c mouse thyroid at 7 to 8 KBq, iv after 60 mins; type: ADME, organism-based; details: in vivo, 1 h
[16] = test system: Mus musculus; assay: Biodistribution in BALB/c mouse upper body at 7 to 8 KBq, iv after 60 mins; type: ADME, organism-based; details: in vivo, 1 h
[17] = test system: Striatum; assay: Biodistribution in BALB/c mouse striatum at 7 to 8 KBq, iv after 120 mins; type: ADME, organism-based; details: in vivo, 2 h
[18] = test system: Intestine; assay: Biodistribution in BALB/c mouse intestine at 7 to 8 KBq, iv after 120 mins; type: ADME, organism-based; details: in vivo, 2 h
[19] = test system: Kidney; assay: Biodistribution in BALB/c mouse kidney at 7 to 8 KBq, iv after 60 mins; type: ADME, organism-based; details: in vivo, 1 h
[20] = test system: Hippocampus; assay: Biodistribution in BALB/c mouse hippocampus at 7 to 8 KBq, iv after 5 mins; type: ADME, organism-based; details: in vivo
[21] = test system: Kidney; assay: Biodistribution in BALB/c mouse kidney at 7 to 8 KBq, iv after 15 mins; type: ADME, organism-based; details: in vivo, 0.25 h
[22] = test system: Striatum; assay: Biodistribution in BALB/c mouse striatum at 7 to 8 KBq, iv after 5 mins; type: ADME, organism-based; details: in vivo
[23] = test system: Lung; assay: Biodistribution in BALB/c mouse lung at 7 to 8 KBq, iv after 120 mins; type: ADME, organism-based; details: in vivo, 2 h
[24] = test system: Thyroid gland; assay: Biodistribution in BALB/c mouse thyroid at 7 to 8 KBq, iv after 5 mins; type: ADME, organism-based; details: in vivo
[25] = test system: Mus musculus; assay: Biodistribution in BALB/c mouse lower body at 7 to 8 KBq, iv after 120 mins; type: ADME, organism-based; details: in vivo, 2 h
[26] = test system: Liver; assay: Biodistribution in BALB/c mouse liver at 7 to 8 KBq, iv after 120 mins; type: ADME, organism-based; details: in vivo, 2 h
[27] = test system: Intestine; assay: Biodistribution in BALB/c mouse intestine at 7 to 8 KBq, iv after 15 mins; type: ADME, organism-based; details: in vivo, 0.25 h
[28] = test system: Pancreas; assay: Biodistribution in BALB/c mouse pancreas at 7 to 8 KBq, iv after 15 mins; type: ADME, organism-based; details: in vivo, 0.25 h
[29] = test system: Spleen; assay: Biodistribution in BALB/c mouse spleen at 7 to 8 KBq, iv after 60 mins; type: ADME, organism-based; details: in vivo, 1 h
[30] = test system: Heart; assay: Biodistribution in BALB/c mouse heart at 7 to 8 KBq, iv after 60 mins; type: ADME, organism-based; details: in vivo, 1 h
[31] = test system: Brain; assay: Biodistribution in BALB/c mouse brain at 7 to 8 KBq, iv after 5 mins; type: ADME, organism-based; details: in vivo
[32] = test system: Heart; assay: Biodistribution in BALB/c mouse heart at 7 to 8 KBq, iv after 120 mins; type: ADME, organism-based; details: in vivo, 2 h
[33] = test system: Blood; assay: Biodistribution in BALB/c mouse blood at 7 to 8 KBq, iv after 15 mins; type: ADME, organism-based; details: in vivo, 0.25 h
[34] = test system: Cortex; assay: Biodistribution in BALB/c mouse cortex at 7 to 8 KBq, iv after 5 mins; type: ADME, organism-based; details: in vivo
[35] = test system: Medulla; assay: Biodistribution in BALB/c mouse medulla at 7 to 8 KBq, iv after 120 mins; type: ADME, organism-based, Medulla of organ; details: in vivo, 2 h
[36] = test system: Liver; assay: Biodistribution in BALB/c mouse liver at 7 to 8 KBq, iv after 5 mins; type: ADME, organism-based; details: in vivo
[37] = test system: Cortex; assay: Biodistribution in BALB/c mouse cortex at 7 to 8 KBq, iv after 15 mins; type: ADME, organism-based; details: in vivo, 0.25 h
[38] = test system: Cerebellum; assay: Biodistribution in BALB/c mouse cerebellum at 7 to 8 KBq, iv after 120 mins; type: ADME, organism-based; details: in vivo, 2 h

What does the source list for `CN1CCN(C2=Nc3cc([125I])ccc3Nc3ccccc32)CC1` [[125I]I-OZAPINE]?
Drug uptake [1]: 0.31 %ID; Drug uptake [2]: 4.17 %ID; Drug uptake [3]: 6.64 %ID; Drug uptake [4]: 2.05 %ID; Drug uptake [5]: 0.5 %ID; Drug uptake [6]: 1.77 %ID; Drug uptake [7]: 2.79 %ID; Drug uptake [8]: 0.2 %ID; Drug uptake [9]: 0.8 %ID; Drug uptake [10]: 4.61 %ID; Drug uptake [11]: 23.3 %ID; Drug uptake [12]: 5.23 %ID; Drug uptake [13]: 1.2 %ID; Drug uptake [14]: 0.22 %ID; Drug uptake [15]: 0.68 %ID; Drug uptake [16]: 11.54 %ID; Drug uptake [17]: 0.2 %ID; Drug uptake [18]: 34.13 %ID; Drug uptake [19]: 2.15 %ID; Drug uptake [20]: 7.07 %ID; Drug uptake [21]: 4.41 %ID; Drug uptake [22]: 7.28 %ID; Drug uptake [23]: 0.17 %ID; Drug uptake [24]: 0 %ID; Drug uptake [25]: 4.97 %ID; Drug uptake [26]: 9.8 %ID; Drug uptake [27]: 17.73 %ID; Drug uptake [28]: 1.02 %ID; Drug uptake [29]: 0.13 %ID; Drug uptake [30]: 0.13 %ID; Drug uptake [31]: 3.49 %ID; Drug uptake [32]: 0.05 %ID; Drug uptake [33]: 3.31 %ID; Drug uptake [34]: 7.22 %ID; Drug uptake [35]: 0.16 %ID; Drug uptake [36]: 11.12 %ID; Drug uptake [37]: 6.65 %ID; Drug uptake [38]: 0.12 %ID
